Measured values from patent US20110251220A1, “Pharmaceutical compositions comprising gamma secretase modulators” (priority 2008, published 2011).

Assays:
Format in all cases: cell-based, human
OCL = assay: PARP cleavage in osteoclasts (OCL), mono- and coculture
Method: (§1) Human MM cell lines used were as follows: NCI-H929, OPM-2, LP-1, RPMI-8226, U266 (DSMZ, Braunschweig, Germany). Cell lines were cultured in RPMI 1640 medium (Biochrom, Berlin, Germany) supplemented with 10% heat-inactivated fetal calf serum (FCS, Gibco, Karlsruhe, Germany), 1 mM sodium pyruvate and 100 units/ml penicillin and 100 μg/ml streptomycin (Gibco). Human osteoclasts were obtained as described in the reference of Zavrski I, Krebbel H, Wildemann B, et al. Proteasome inhibitors abrogate osteoclast differentiation and osteoclast function. Biochem Biophys Res Commun. 2005; 333:200-205. Briefly, peripheral blood mononuclear cells (PBMC) were isolated from whole blood of healthy volunteers, using a Ficoll-Hypaque density gradient. The adherent fraction of the isolated mononuclear cells was cultured for 21 days in MEM medium (Sigma-Aldrich Chemie, Taufkirchen, Germany) supplemented with 10% FCS, 100 U/ml penicillin, 100 μg/ml streptomycin, 50 ng/ml M-CSF, and 25 ng/ml RANKL (osteoclastogenic medium), before coculture experiments and treatment with the inventive compounds started. […]
Whole cell extracts were prepared and quantified as described in Jundt F, Anagnostopoulos I, Forster R, Mathas S, Stein H, Dorken B. Activated Notch1 signaling promotes tumor cell proliferation and survival in Hodgkin and anaplastic large cell lymphoma. […]

MSC = assay: PARP cleavage in mesenchymal stem cells (MSC), mono- and coculture; conditions: mono- and cocultures, high doses of GSI15
Method: Whole cell extracts were prepared and quantified as described in Jundt F, Anagnostopoulos I, Forster R, Mathas S, Stein H, Dorken B. Activated Notch1 signaling promotes tumor cell proliferation and survival in Hodgkin and anaplastic large cell lymphoma. Blood. 2002; 99:3398-3403. Proteins (30 μg) were resolved by sodium dodecyl sulfate-polyacrylamide gel electrophoresis (SDS-PAGE) and transferred to nitrocellulose membranes. Protein loading was normalized by Ponceau red staining. Membranes were incubated with monoclonal mouse anti-Notch1 antibody (no. 552466; BD Biosciences, Heidelberg, Germany), anti-Jagged1 antibody (sc-8303; Santa Cruz Biotechnology), polyclonal rabbit anti-Delta antiboday (Santa Cruz Biotechnology), polyclonal rabbit anti-cleaved PARP (Asp214) antibody (Cell Signaling Technologies, Frankfurt a.M., Germany) or mouse monoclonal anti-tubulin antibody (Sigma, Deisenhofen, Germany).
Secondary antibodies were goat anti-mouse (Promega, Mannheim, Germany), goat anti-rat (Dianova, Hamburg, Germany), and goat anti-rabbit (Santa Cruz Biotechnology) horseradish peroxidase (HRP)-conjugated antibodies. Detection was done using Pico chemi-luminescence reagent (Perbio Science, Bonn, Germany).

[1] = system: OPM-2 cocultured with OCL; assay: OPM-2/OCL coculture, apoptosis of OPM-2 by AnnexinV-FITC/PI staining; conditions: 60 μM GSI15, 48 h
Method: as §1, with “gradient.” for “gradient. The adherent fraction of the isolated mononuclear cells was cultured for 21 days in MEM medium (Sigma-Aldrich Chemie, Taufkirchen, Germany) supplemented with 10% FCS, 100 U/ml penicillin, 100 μg/ml streptomycin, 50 ng/ml M-CSF, and 25 ng/ml RANKL (osteoclastogenic medium), before coculture experiments and treatment with the inventive compounds started.”
For cell cycle analysis 2×10^5 cells were spun down, medium was aspirated and cells washed with PBS. […] After 10 minutes incubation in the dark at room temperature, cells were analyzed by flow cytometry. The amount of apoptotic cells was determined by AnnexinV/propidium iodide staining using Human AnnexinV-FITC Kit (Bender Medsystems, Vienna, Austria), according to manufacturer's protocol. […] Cells were then spun down again, resuspended in binding buffer containing PI and analyzed by flow cytometry.

Q: What does the source list for `CC(C)c1ccc(S(=O)(=O)Nc2cccnc2Oc2ccc(Cl)cc2)cc1` [Example 1, N-(2-(4-chlorophenoxy)pyridin-3-yl)-4-isopropylbenzenesulfonamide]?
A: PARP cleavage (OCL; OCL alone): did not induce PARP cleavage; PARP cleavage (OCL; OCL cocultured with OPM-2 cells, high doses of GSI15): it was induced; PARP cleavage (apoptosis) (MSC): Neither in OBL nor in MSC apoptosis was induced; overall amount of apoptotic cells [1]: 83%
